The values below come from patent publication US10420341B2, “Herbicidal phenylpyrimidines” (BASF SE, priority 2015, dated 2019).

For one test, the system named is APESV. The experiment in a line: greenhouse pre-emergence herbicidal test. The class given is in vivo, Apera spica-venti. The following applies: pre-emergence method, application rate 500 g/ha, scale from 0 to 100. A digest of the protocol: (§1)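 Seeds sown per species; actives suspended or emulsified in water were sprayed through fine nozzles directly after sowing. Pots were watered and hooded until rooted, kept at 10-25° C. or 20-35° C. by species for 2 to 4 weeks, then scored 0-100 (100 = no emergence or complete aerial destruction).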

Test [1] deals with ECHCG. The experiment in a line: greenhouse pre-emergence herbicidal test. In kind it is in vivo, Echinocloa crus-galli. The following applies: pre-emergence method, application rate 500 g/ha, scale from 0 to 100. The gist of the method:
as §1

Another test deals with POLCO. The test is described as follows: greenhouse pre-emergence herbicidal test. The class given is in vivo, Polygonum convolvulus. To be noted: pre-emergence method, application rate 500 g/ha, scale from 0 to 100. An excerpt: The seeds of the test plants were sown separately for each species. For the pre-emergence treatment, the active ingredients, which had been suspended or emulsified in water, were applied directly after sowing by means of finely distributing nozzles. The containers were irrigated gently to promote germination and growth and subsequently covered with transparent plastic hoods until the plants had rooted. This cover caused uniform germination of the test plants, unless this had been impaired by the active ingredients. Depending on the species, the plants were kept at 10-25° C. or 20-35° C., respectively. The test period extended over 2 to 4 weeks. During this time, the plants were tended, and their response to the individual treatments was evaluated. Evaluation was carried out using a scale from 0 to 100. 100 means no emergence of the plants, or complete destruction of at least the aerial moieties, and 0 means no damage, or normal course of growth. […] The plants used in the greenhouse experiments were of the following species: [table]

The next test concerns ALOMY. The experiment in a line: greenhouse post-emergence herbicidal test. In kind it is in vivo, Alopercurus myosuroides. The following applies: post-emergence method, application rate 500 g/ha, scale from 0 to 100. The gist of the method: (§2)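 Read-out is a visual 0–100 injury rating, 100 meaning complete destruction of at least aerial parts and 0 meaning normal growth. It was taken over 2–4 weeks after plants 3–15 cm tall were treated with compound suspended or emulsified in water.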

For another test, the system named is AVEFA. The test is described as follows: greenhouse post-emergence herbicidal test. In kind it is in vivo, Avena fatua. To be noted: post-emergence method, application rate 500 g/ha, scale from 0 to 100. A digest of the protocol:
as §2

Test [2] deals with ECHCG. The experiment in a line: greenhouse post-emergence herbicidal test. In kind it is in vivo, Echinocloa crus-galli. The following applies: post-emergence method, application rate 500 g/ha, scale from 0 to 100. The gist of the method: as §2

In the case of `O=C(OCC(F)F)c1nc(C2CC2)ncc1-c1ccccc1Cl` [example 257], the “herbicidal activity against APESV” value in the test with APESV was “very good (a very good herbicidal activity is given at values of at least 85)”. The “herbicidal activity against ECHCG” value in the test with ECHCG [1] was “very good (a very good herbicidal activity is given at values of at least 85)”; in the test on ECHCG [2] it was “good (A good herbicidal activity is given at values of at least 70)”. For the same molecule, the “herbicidal activity against POLCO” value in the test with POLCO is on record as “very good (a very good herbicidal activity is given at values of at least 85)”. Also, the “herbicidal activity against ALOMY” value in the test with ALOMY is “very good (a very good herbicidal activity is given at values of at least 85)”. In addition, the “herbicidal activity against AVEFA” value with AVEFA is recorded as “very good (a very good herbicidal activity is given at values of at least 85)”.
